{"source": "patent US8889713B1", "about": "“N-substituted tetrahydroisoquinoline benzamides/benzene sulfonamides as anti-cancer agents” (Florida A&M University, priority 2013, dated 2014)", "assay_type_in_all_cases": "cell-based", "key": {"[1]": {"tested_on": "MCF-7 estrogen receptor-positive breast cancer cells", "assay": "[…]-GLO luminescent cell viability assay, MCF-7", "conditions": "Homo sapiens, MCF7, MCF-7, 72 h at 37° C., 5000 cells/well", "description": "(§1) All the compounds were tested in the three cell lines. Different concentrations of compounds, ranging from about 0.01 nM to about 100,000 nM were delivered to […] cells per well, which were then incubated for three days at 37° C., followed by CTG assay.\n(§2) In this assay, the number of viable cells in culture is determined based on the quantification of ATP present, which signals the presence of metabolically active cells. Damaged cells are not detected as the ATP leaked from these cells is quickly consumed by ATPases that are also released upon damage). The amount of ATP is determined using a system based on luciferase and D-luciferin resulting in light generation.\n(§3) The cell lines were plated in 13, 96 well plates at a density of 5000 cells/well in total volumes of 50 μL in phenol-red free medium and incubated for overnight.\n(§4) 25 μL of 40 nM estradiol should be added to all appropriate wells on the plate. […] 25 μL of stocks (containing the compounds to be tested, DMSO and phenol-red free medium) were added to cells and medium already on plate. 50 μL of medium were added to media wells, and 50 μL of mix (contain 32 mL DMSO+768 mL phenol-red free medium) to all vehicle control wells.\n(§5) Luminescence results were read on TriLux Luminometer. The luminescent signal is proportional to the number of active cells present in culture. […] As a consequence, the number of metabolically active cells can be directly derived from the luminescent signal using a specific calibration curve. Data were expressed as percentage of untreated control (i.e. treatment value-blank/vehicle value blank), mean±SE for three replications."}, "[2]": {"tested_on": "Ishikawa cells", "assay": "[…]-GLO luminescent cell viability assay, Ishikawa", "conditions": "Homo sapiens, 72 h at 37° C., 5000 cells/well", "description": "as §1, §2, §3, §4, §5"}, "[3]": {"tested_on": "MDA-MB-231 estrogen receptor-negative breast cancer cell line", "assay": "[…]-GLO luminescent cell viability assay, MDA-MB-231", "conditions": "Homo sapiens, MDA-MB-231, 72 h at 37° C., 5000 cells/well", "description": "as §1, §2, §3, §4, §5"}}}
{"smiles": "CC(C)(C)c1ccc(C(=O)NN2CCc3ccc(O)cc3C2)cc1", "note": "[Redda-GM-4-40, 4-(tert-Butyl)-N-(7-hydroxy-3,4-dihydroisoquinolin-2(1H)-yl)benzamide]", "values": [{"measurement": "IC50", "setting": "[1]", "value": 2.3, "unit": "µg/mL"}, {"measurement": "IC50", "setting": "[2]", "value": 0.95, "unit": "µg/mL"}, {"measurement": "IC50", "setting": "[3]", "value": 4.7, "unit": "µg/mL"}]}
{"smiles": "CCc1ccc(C(=O)NN2CCc3ccc(O)cc3C2)cc1", "note": "[Redda-GM-4-53, 4-Ethyl-N-(7-hydroxy-3,4-dihydroisoquinolin-2-(1H)-yl)benzamide]", "values": [{"measurement": "IC50", "setting": "[1]", "value": 0.2, "unit": "µg/mL"}, {"measurement": "IC50", "setting": "[2]", "value": 0.08, "unit": "µg/mL"}, {"measurement": "IC50", "setting": "[3]", "value": 0.13, "unit": "µg/mL"}]}
{"smiles": "CCc1ccc(C(=O)NN2CCc3ccc(OC)cc3C2)cc1", "note": "[Redda-EVK-I-074, 4-Ethyl-N-(7-methoxy-3,4-dihydroisoquinolin-2(1H)-yl)benzamide]", "values": [{"measurement": "IC50", "setting": "[1]", "value": 0.25, "unit": "µg/mL"}, {"measurement": "IC50", "setting": "[2]", "value": 0.11, "unit": "µg/mL"}, {"measurement": "IC50", "setting": "[3]", "value": 0.23, "unit": "µg/mL"}]}
{"smiles": "O=C(NN1CCc2ccccc2C1)c1nc2ccccc2s1", "note": "[Redda-GM-3-177, N-(3,4-Dihydroisoquinolin-2-(1H)-yl)benzo[d]thiazole-2-carboxamide]", "values": [{"measurement": "IC50", "setting": "[1]", "value": 15, "unit": "µg/mL"}, {"measurement": "IC50", "setting": "[2]", "value": 8.98, "unit": "µg/mL"}, {"measurement": "IC50", "setting": "[3]", "value": 13.1, "unit": "µg/mL"}]}
{"smiles": "O=C(NN1CCc2ccccc2C1)c1ccc(C(F)(F)F)cc1", "note": "[Redda-GM-3-143, N-(3,4-Dihydroisoquinolin-2-(1H)-yl)-4-(trifluoromethyl)benzamide]", "values": [{"measurement": "IC50", "setting": "[1]", "value": 3.15, "unit": "µg/mL"}, {"measurement": "IC50", "setting": "[2]", "value": 0.5, "unit": "µg/mL"}, {"measurement": "IC50", "setting": "[3]", "value": 4.85, "unit": "µg/mL"}]}
{"smiles": "CCc1ccc(C(=O)NN2CCc3c(Br)ccc(Br)c3C2)cc1", "note": "[Redda-EVK-I-079, N-(5,8-Dibromo-3,4-dihydroisoquinolin-2(1H)-yl)-4-ethylbenzamide]", "values": [{"measurement": "IC50", "setting": "[1]", "value": 2.34, "unit": "µg/mL"}, {"measurement": "IC50", "setting": "[2]", "value": 0.84, "unit": "µg/mL"}, {"measurement": "IC50", "setting": "[3]", "value": 1.71, "unit": "µg/mL"}]}
{"smiles": "CCc1ccc(C(=O)NN2CCc3ccccc3C2)cc1", "note": "[Redda-GM-3-121, N-(3,4-Dihydroisoquinolin-2(1H)-yl)-4-ethylbenzamide]", "values": [{"measurement": "IC50", "setting": "[1]", "value": 0.43, "unit": "µg/mL"}, {"measurement": "IC50", "setting": "[2]", "value": 0.01, "unit": "µg/mL"}, {"measurement": "IC50", "setting": "[3]", "value": 0.37, "unit": "µg/mL"}]}
{"smiles": "O=C(NN1CCc2ccccc2C1)c1ccc(Br)cc1", "note": "[Redda-GM-3-135, 4-Bromo-N-(3,4-dihydroisoquinolin-2(1H)-yl)benzamide]", "values": [{"measurement": "IC50", "setting": "[1]", "value": 0.7, "unit": "µg/mL"}, {"measurement": "IC50", "setting": "[2]", "value": 0.02, "unit": "µg/mL"}, {"measurement": "IC50", "setting": "[3]", "value": 4.34, "unit": "µg/mL"}]}
{"smiles": "CCCCc1ccc(C(=O)NN2CCc3ccccc3C2)cc1", "note": "[Redda-GM-3-156, 4-Butyl-N-(3,4-dihydrozyisoquinolin-2(1H)-yl)benzamide]", "values": [{"measurement": "IC50", "setting": "[1]", "value": 3.05, "unit": "µg/mL"}, {"measurement": "IC50", "setting": "[2]", "value": 0.96, "unit": "µg/mL"}, {"measurement": "IC50", "setting": "[3]", "value": 7.03, "unit": "µg/mL"}]}
{"smiles": "CCc1ccc(C(=O)NN2CCc3c(cccc3OC)C2)cc1", "note": "[Redda-EVK-I-062, 4-Ethyl-N-(5-methoxy-3,4-dihydroisoquinolin-2(1H)-yl)benzamide]", "values": [{"measurement": "IC50", "setting": "[1]", "value": 7.38, "unit": "µg/mL"}, {"measurement": "IC50", "setting": "[2]", "value": 6.34, "unit": "µg/mL"}, {"measurement": "IC50", "setting": "[3]", "value": 10.5, "unit": "µg/mL"}]}
{"smiles": "CCCc1ccc(C(=O)NN2CCc3ccccc3C2)cc1", "note": "[Redda-GM-3-122, N-(3,4-Dihydroxyisoquinolin-2(1H)-yl)-4-propylbenzamide]", "values": [{"measurement": "IC50", "setting": "[1]", "value": 3.71, "unit": "µg/mL"}, {"measurement": "IC50", "setting": "[2]", "value": 0.75, "unit": "µg/mL"}, {"measurement": "IC50", "setting": "[3]", "value": 3.26, "unit": "µg/mL"}]}
{"smiles": "CCc1ccc(C(=O)NN2CCc3c(Br)cccc3C2)cc1", "note": "[Redda-GM-4-62, N-(5-Bromo-3,4-dihyroisoquinolin-2(1H)-yl)-4-ethylbenzamide]", "values": [{"measurement": "IC50", "setting": "[1]", "value": 3.5, "unit": "µg/mL"}, {"measurement": "IC50", "setting": "[2]", "value": 1.15, "unit": "µg/mL"}, {"measurement": "IC50", "setting": "[3]", "value": 6.01, "unit": "µg/mL"}]}
